Assay results: ChEMBL document CHEMBL1142231, “Proline-rich tyrosine kinase 2 regulates osteoprogenitor cells and bone formation, and offers an anabolic treatment approach for osteoporosis” (Proc Natl Acad Sci U S A, 2007)
Active and inactive are the calls of the source. No cut-off for these calls is given here.

Assays:
[1] = test system: Rattus norvegicus; assay: Prevention of bone loss in po dosed ovariectomized Sprague-Dawley rat assessed as osteoclast surface of proximal tibia cancellous bone; type: functional
[2] = test system: Rattus norvegicus; assay: Effect on bone turnover in po dosed ovariectomized Sprague-Dawley rat assessed as mineralizing surface of proximal tibia cancellous bone; type: functional
[3] = test system: Rattus norvegicus; assay: Effect on bone metabolism in po dosed ovariectomized Sprague-Dawley rat assessed as bone formation rate of proximal tibia cancellous bone; type: functional
[4] = test system: Rattus norvegicus; assay: Prevention of bone loss in ovariectomized Sprague-Dawley rat assessed as osteoclast surface of proximal tibia cancellous bone at 30 mg/kg, po administered daily for 28 days; type: functional
[5] = test system: Rattus norvegicus; assay: Increase in bone formation in ovariectomized Sprague-Dawley rat assessed as mineral apposition rate of proximal tibia cancellous bone at 10 mg/kg, po administered daily for 28 days; type: functional
[6] = test system: Rattus norvegicus; assay: Increase in bone formation in ovariectomized Sprague-Dawley rat assessed as mineralizing surface of proximal tibia cancellous bone at 10 mg/kg, po administered daily for 28 days; type: functional
[7] = test system: Rattus norvegicus; assay: Effect on bone resorption in ovariectomized Sprague-Dawley rat assessed as serum C-telopeptide degradation product at 30 mg/kg, po administered daily for 28 days; type: functional, organism-based; parameters: dose 30 mg/kg
[8] = test system: Rattus norvegicus; assay: Prevention of bone loss in ovariectomized Sprague-Dawley rat assessed as osteoclast surface of proximal tibia cancellous bone at 10 mg/kg, po administered daily for 28 days; type: functional
[9] = test system: Rattus norvegicus; assay: Effect on bone resorption in ovariectomized Sprague-Dawley rat assessed as serum C-telopeptide degradation product at 10 mg/kg, po administered daily for 28 days; type: functional, organism-based; parameters: dose 10 mg/kg
[10] = test system: Rattus norvegicus; assay: Effect on bone metabolism in ovariectomized Sprague-Dawley rat assessed as bone formation rate of proximal tibia cancellous bone at 10 mg/kg, po administered daily for 28 days; type: functional
[11] = test system: Rattus norvegicus; assay: Increase in bone formation in ovariectomized Sprague-Dawley rat assessed as mineral apposition rate of proximal tibia cancellous bone at 30 mg/kg, po administered daily for 28 days; type: functional
[12] = test system: Mesenchymal stem cell; assay: Increase in alkaline phosphatase activity in human mesenchymal stem cells; type: functional, cell-based
[13] = test system: Rattus norvegicus; assay: Increase in bone formation in ovariectomized Sprague-Dawley rat assessed as mineralizing surface of proximal tibia cancellous bone at 30 mg/kg, po administered daily for 28 days; type: functional
[14] = test system: Rattus norvegicus; assay: Effect on bone metabolism in ovariectomized Sprague-Dawley rat assessed as bone formation rate of proximal tibia cancellous bone at 30 mg/kg, po administered daily for 28 days; type: functional

C#CC1(O)CC[C@H]2[C@@H]3CCc4cc(O)ccc4[C@H]3CC[C@@]21C (single isomer, unassigned) [ETHINYL ESTRADIOL]
Activity [1]: 4.55%
Activity [2]: 20.22%
Activity [3]: 77.91 microm2/micrometer/d

CN(c1ccccc1CNc1nc(Nc2ccc3c(c2)CC(=O)N3)ncc1C(F)(F)F)S(C)(=O)=O.Cl
Activity [4]: 6.13%
Activity [5]: 1.77 micrometer/day
Activity [6]: 36.81%
Activity [7]: inactive
Activity [8]: 7.83%
Activity [9]: inactive
Activity [10]: 240.17 microm2/micrometer/d
Activity [11]: 1.96 micrometer/day
Activity [12]: Active
Activity [13]: 40.6%
Activity [14]: 291.43 microm2/micrometer/d
